Experimental data as given in patent publication US20260201008A1, “SECRETIN-DERIVED GLP1R SELECTIVE AGONISTS” (GUBRA A/S, priority 2023, published 2026).
Like-named read-outs stand apart in the source and are kept apart here. Numbered stars: 1 amine (or outer) side, 2 acyl side, 3 side chain; on linkers, the order of the positions; unused ones are H or OH. Square brackets hold non-standard residues; d marks the D form. Side chains are listed from the residue outwards. Peptide text beside a SMILES is read from it. * marks the point of attachment. C20 diacid = O=C(O)CCCCCCCCCCCCCCCCCCC(=O)*; γGlu = O=C(O)[C@H](CCC(=O)[*:2])N[*:1]; AEEA = NCCOCCOCC(=O)O; Aib = CC(C)(N)C(=O)O

Columns and labels:
[1] = Turbidity of crude library peptides (absorbance at 600 nm); type: physicochemical; settings: Physical stability of peptides
Method: (§1) Peptides were dissolved in buffers (50 mM sodium acetate at pH 4.0, or 50 mM sodium phosphate at pH 7.0) to 267 μM and incubated for 1-2 hours at room temperature. The samples were then divided into two replicates of 80 μl in a black 384 well plate (μ-clear, Greiner Bio-One) and mixed with Thioflavin T (ThT) to a final concentration of 4 μM. The plate was centrifuged for 2 min at 2000 rpm to remove air bubbles, sealed, and placed in a plate reader (CLARIOstar, BMG). Firstly, turbidity of the samples was measured as the absorbance at 600 nm. Secondly, the plate reader temperature was set to 40° C. and the fluorescence was measured every 10 min for 72 hours by exciting the ThT at 450 nm and measuring the emission at 480 nm. Samples were stressed by shaking the plate at 700 rpm (linear) for five minutes before every measurement, and fibril formation was determined as the average emission for each sample.

GLP1R = GLP1R (Homo sapiens, UniProt P43220); assay: hGLP1R potency, cAMP accumulation in CHO-K1 cells stably overexpressing hGLP1R; type: cell-based; set-up: host or cells: CHO-K1; settings: for EC50: cAMP accumulation; for SCTR EC50/GLP1R EC50 ratio: cAMP accumulation in CHO-K1 cells; for Selectivity: SCTR EC50/GLP1R EC50 ratio
Procedure, shortened: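 CHO-K1 cells stably expressing hGLP1R (2000/well) in DPBS with 0.05% casein and 0.5 mM IBMX were stimulated 30 min at room temperature with graded compound doses; human GLP-1(7-36) served as positive control. cAMP was read by HTRF after 1 h; EC50 came from variable-slope sigmoid fits (purified peptides: 11-point 3-fold, n=2).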

SCTR = SCTR (Homo sapiens, UniProt P47872); assay: hSCTR potency, cAMP accumulation in CHO-K1 cells stably overexpressing hSCTR; type: cell-based; set-up: alternatively Euroscreen ES-712-AF; FAST-0161L; host or cells: CHO-K1; settings: cAMP accumulation
Procedure, shortened: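 Cells plated at 2000/well in DPBS with 0.05% casein and 0.5 mM IBMX, stimulated 30 min at room temperature with graded compound doses; human secretin as positive control. cAMP read by TR-FRET after 1 h. Purified peptides tested at 11 3-fold dilutions, n=2; EC50 by variable-slope sigmoid fit.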

[2] = Fibril formation of crude library peptides (Thioflavin T); type: physicochemical; set-up: key: average ThT fluorescence emission at 480 nm (ex 450 nm), raw units; settings: Physical stability of peptides
Method: as §1

[3] = CHO-K1 cells overexpressing hGLP1R, read-out: hGLP1R pEC50 (converted)
[4] = selectivity for hGLP1R over hSCTR
[5] = CHO-K1 cells overexpressing hSCTR, read-out: hSCTR pEC50 (converted)
[6] = CHO-K1 cells overexpressing hGLP1R, read-out: pEC50 hGLPR1 (converted)
[7] = CHO-K1 cells overexpressing hSCTR, read-out: pEC50 hSCTR (converted)

SCTR, sequence (P47872 23-440): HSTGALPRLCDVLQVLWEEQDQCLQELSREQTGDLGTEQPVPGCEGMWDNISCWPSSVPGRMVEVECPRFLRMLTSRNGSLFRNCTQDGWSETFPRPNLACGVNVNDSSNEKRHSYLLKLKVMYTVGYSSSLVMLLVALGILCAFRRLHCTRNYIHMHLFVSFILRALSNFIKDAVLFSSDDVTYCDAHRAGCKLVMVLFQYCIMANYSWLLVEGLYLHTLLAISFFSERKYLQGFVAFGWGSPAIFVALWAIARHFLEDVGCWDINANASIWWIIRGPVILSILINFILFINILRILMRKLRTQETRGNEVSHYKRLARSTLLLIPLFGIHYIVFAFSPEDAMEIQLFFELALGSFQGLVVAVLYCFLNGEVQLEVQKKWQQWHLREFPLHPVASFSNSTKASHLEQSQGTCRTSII
GLP1R, sequence (P43220 24-463): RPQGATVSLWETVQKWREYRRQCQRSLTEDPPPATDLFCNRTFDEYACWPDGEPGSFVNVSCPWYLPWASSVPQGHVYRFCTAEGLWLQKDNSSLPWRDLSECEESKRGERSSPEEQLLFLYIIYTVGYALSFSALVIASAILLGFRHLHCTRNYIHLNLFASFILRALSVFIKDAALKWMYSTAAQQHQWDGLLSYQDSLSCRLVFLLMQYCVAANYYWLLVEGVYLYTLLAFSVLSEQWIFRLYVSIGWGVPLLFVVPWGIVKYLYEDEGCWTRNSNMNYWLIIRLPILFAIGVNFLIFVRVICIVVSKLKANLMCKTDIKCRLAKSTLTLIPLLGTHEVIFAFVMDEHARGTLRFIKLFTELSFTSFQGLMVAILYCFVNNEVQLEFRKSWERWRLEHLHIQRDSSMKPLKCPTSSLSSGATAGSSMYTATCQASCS

CC[C@H](C)[C@H](NC(=O)[C@H](Cc1ccccc1)NC(=O)[C@H](CCCNC(=N)N)NC(=O)[C@H](CCC(N)=O)NC(=O)[C@H](CC(C)C)NC(=O)[C@H](C)NC(=O)[C@H](C)NC(=O)CNC(=O)[C@H](CCC(=O)O)NC(=O)[C@H](CC(C)C)NC(=O)[C@H](CC(C)C)NC(=O)[C@H](Cc1c[nH]c2ccccc12)NC(=O)[C@H](CO)NC(=O)C(C)(C)NC(=O)[C@H](CC(=O)O)NC(=O)[C@H](CO)NC(=O)[C@@H](NC(=O)[C@H](Cc1ccccc1)NC(=O)[C@@H](NC(=O)CNC(=O)[C@H](CCC(=O)O)NC(=O)C(C)(C)NC(=O)[C@@H](N)Cc1c[nH]cn1)[C@@H](C)O)[C@@H](C)O)C(=O)N[C@@H](CCC(N)=O)C(=O)N[C@@H](Cc1c[nH]c2ccccc12)C(=O)N[C@@H](CC(C)C)C(=O)N[C@H](C(N)=O)C(C)C [compound 108] (H-H[Aib]EGTFTSD[Aib]SWLLEGAALQRFIQWLV-NH2)
Turbidity (pH 7) [1]: 0.72
EC50 (GLP1R; [3]): 0.0794 nM
SCTR EC50/GLP1R EC50 ratio (GLP1R; [4]): 14555
EC50 (SCTR; [5]): 1260 nM
Fibril formation [2]: 20603

CC(C)C[C@H](NC(=O)[C@H](CCC(=O)O)NC(=O)[C@H](CCCCNC(=O)COCCOCCNC(=O)COCCOCCNC(=O)CC[C@H](NC(=O)CCCCCCCCCCCCCCCCCCC(=O)O)C(=O)O)NC(=O)[C@H](CC(C)C)NC(=O)[C@H](CCCNC(=N)N)NC(=O)[C@H](CO)NC(=O)[C@@H](NC(=O)[C@H](CC(=O)O)NC(=O)[C@H](CO)NC(=O)[C@@H](NC(=O)[C@H](Cc1ccccc1)NC(=O)[C@@H](NC(=O)CNC(=O)[C@H](CCC(=O)O)NC(=O)C(C)(C)NC(=O)[C@@H](N)Cc1c[nH]cn1)[C@@H](C)O)[C@@H](C)O)C(C)C)C(=O)N[C@@H](C)C(=O)N[C@@H](C)C(=O)N[C@@H](C)C(=O)N[C@@H](CCC(N)=O)C(=O)N[C@@H](CCCNC(=N)N)C(=O)N[C@@H](Cc1ccccc1)C(=O)N[C@@H](CC(C)C)C(=O)N[C@@H](CCC(=O)O)C(=O)N[C@@H](Cc1c[nH]cn1)C(=O)N[C@@H](CC(C)C)C(=O)N[C@H](C(N)=O)C(C)C [compound 9] (H-H[Aib]EGTFTSDVSRLK([AEEA-AEEA-γGlu-C20 diacid])ELAAAQRFLEHLV-NH2)
Turbidity (pH 7) [1]: 0.08
Selectivity (GLP1R): 13668
EC50 (GLP1R; [6]): 0.0631 nM
EC50 (SCTR; [7]): 1000 nM
Fibril formation [2]: 10378

CC(C)C[C@H](NC(=O)[C@H](Cc1ccccc1)NC(=O)[C@H](CCCNC(=N)N)NC(=O)[C@H](CCC(N)=O)NC(=O)[C@H](CCC(N)=O)NC(=O)[C@H](C)NC(=O)[C@H](C)NC(=O)[C@@H](NC(=O)[C@H](CCC(=O)O)NC(=O)[C@H](CCCCNC(=O)COCCOCCNC(=O)COCCOCCNC(=O)CC[C@H](NC(=O)CCCCCCCCCCCCCCCCCCC(=O)O)C(=O)O)NC(=O)[C@H](CC(C)C)NC(=O)[C@@H](NC(=O)[C@H](CO)NC(=O)[C@@H](NC(=O)[C@H](CC(=O)O)NC(=O)[C@H](CO)NC(=O)[C@@H](NC(=O)[C@H](Cc1ccccc1)NC(=O)[C@@H](NC(=O)CNC(=O)[C@H](CCC(=O)O)NC(=O)C(C)(C)NC(=O)[C@@H](N)Cc1c[nH]cn1)[C@@H](C)O)[C@@H](C)O)C(C)C)C(C)C)[C@@H](C)O)C(=O)N[C@@H](CCC(=O)O)C(=O)N[C@@H](Cc1c[nH]cn1)C(=O)N[C@@H](CC(C)C)C(=O)N[C@H](C(N)=O)C(C)C [compound 41] (H-H[Aib]EGTFTSDVSVLK([AEEA-AEEA-γGlu-C20 diacid])ETAAQQRFLEHLV-NH2)
Turbidity (pH 7) [1]: 0.08
Selectivity (GLP1R): 16199
EC50 (GLP1R; [6]): 0.00794 nM
EC50 (SCTR; [7]): 126 nM
Fibril formation [2]: 109124

CC(C)C[C@H](NC(=O)[C@H](Cc1ccccc1)NC(=O)[C@H](CCCNC(=N)N)NC(=O)[C@H](CCC(N)=O)NC(=O)[C@H](CC(C)C)NC(=O)C(C)(C)NC(=O)[C@H](C)NC(=O)[C@H](CCC(=O)O)NC(=O)[C@H](CCC(=O)O)NC(=O)[C@H](CCCCNC(=O)COCCOCCNC(=O)COCCOCCNC(=O)CC[C@H](NC(=O)CCCCCCCCCCCCCCCCCCC(=O)O)C(=O)O)NC(=O)[C@H](CC(C)C)NC(=O)[C@H](Cc1ccc(O)cc1)NC(=O)[C@H](CO)NC(=O)[C@@H](NC(=O)[C@H](CC(=O)O)NC(=O)[C@H](CO)NC(=O)[C@@H](NC(=O)[C@H](Cc1ccccc1)NC(=O)[C@@H](NC(=O)CNC(=O)[C@H](CCC(=O)O)NC(=O)[C@H](C)NC(=O)[C@@H](N)Cc1c[nH]cn1)[C@@H](C)O)[C@@H](C)O)C(C)C)C(=O)N[C@@H](CCC(=O)O)C(=O)N[C@@H](Cc1c[nH]cn1)C(=O)N[C@@H](CC(C)C)C(=O)N[C@H](C(N)=O)C(C)C [compound 166] (H-HAEGTFTSDVSYLK([AEEA-AEEA-γGlu-C20 diacid])EEA[Aib]LQRFLEHLV-NH2)
Turbidity (pH 7) [1]: 0.08
EC50 (GLP1R; [3]): 0.00794 nM
SCTR EC50/GLP1R EC50 ratio (GLP1R; [4]): 41476
EC50 (SCTR; [5]): 316 nM
Fibril formation [2]: 4253

CC(C)C[C@H](NC(=O)[C@H](Cc1ccccc1)NC(=O)[C@H](CCCNC(=N)N)NC(=O)[C@H](CCC(N)=O)NC(=O)[C@H](CO)NC(=O)[C@H](C)NC(=O)[C@H](C)NC(=O)[C@H](CCC(=O)O)NC(=O)[C@H](CCC(=O)O)NC(=O)[C@H](CCCCNC(=O)COCCOCCNC(=O)COCCOCCNC(=O)CC[C@H](NC(=O)CCCCCCCCCCCCCCCCCCC(=O)O)C(=O)O)NC(=O)[C@H](CC(C)C)NC(=O)[C@H](CCCNC(=N)N)NC(=O)[C@H](CO)NC(=O)[C@@H](NC(=O)[C@H](CC(=O)O)NC(=O)[C@H](CO)NC(=O)[C@@H](NC(=O)[C@H](Cc1ccccc1)NC(=O)[C@@H](NC(=O)CNC(=O)[C@H](CCC(=O)O)NC(=O)C(C)(C)NC(=O)[C@@H](N)Cc1c[nH]cn1)[C@@H](C)O)[C@@H](C)O)C(C)C)C(=O)N[C@@H](CCC(=O)O)C(=O)N[C@@H](Cc1c[nH]cn1)C(=O)N[C@@H](CC(C)C)C(=O)N[C@H](C(N)=O)C(C)C [compound 17] (H-H[Aib]EGTFTSDVSRLK([AEEA-AEEA-γGlu-C20 diacid])EEAASQRFLEHLV-NH2)
Turbidity (pH 7) [1]: 0.08
Selectivity (GLP1R): 10637
EC50 (GLP1R; [6]): 0.0251 nM
EC50 (SCTR; [7]): 251 nM
Fibril formation [2]: 10330

CC[C@H](C)[C@H](NC(=O)[C@H](Cc1ccccc1)NC(=O)[C@H](CCCNC(=N)N)NC(=O)[C@H](CCC(N)=O)NC(=O)[C@H](CC(C)C)NC(=O)[C@H](C)NC(=O)[C@H](C)NC(=O)CNC(=O)[C@H](CCC(=O)O)NC(=O)[C@H](CC(C)C)NC(=O)[C@H](CC(C)C)NC(=O)[C@H](CCCNC(=N)N)NC(=O)[C@H](CO)NC(=O)[C@H](Cc1ccc(O)cc1)NC(=O)[C@H](CC(=O)O)NC(=O)[C@H](CO)NC(=O)[C@@H](NC(=O)[C@H](Cc1ccccc1)NC(=O)[C@@H](NC(=O)CNC(=O)[C@H](CCC(=O)O)NC(=O)C(C)(C)NC(=O)[C@@H](N)Cc1c[nH]cn1)[C@@H](C)O)[C@@H](C)O)C(=O)N[C@@H](CCC(N)=O)C(=O)N[C@@H](Cc1c[nH]c2ccccc12)C(=O)N[C@@H](CC(C)C)C(=O)N[C@H](C(N)=O)C(C)C [compound 194] (H-H[Aib]EGTFTSDYSRLLEGAALQRFIQWLV-NH2)
Turbidity (pH 7) [1]: 0.27
EC50 (GLP1R; CHO-K1 cells stably overexpressing hGLP1R, read-out: hGLP1R potency (pEC50) (converted)): 0.0126 nM
SCTR EC50/GLP1R EC50 ratio (GLP1R; selectivity ratio, hSCTR vs hGLP1R): 114
EC50 (SCTR; CHO-K1 cells stably overexpressing hSCTR, read-out: hSCTR potency (pEC50) (converted)): 1.58 nM
Fibril formation [2]: 8355
